Common to all, as to assay: CPE-RA, letermovir-selected mutant
What all share (type): cell-based, human cytomegalovirus (HCMV)

Test [1] concerns HCMV AD169 mutant rAIC246-1 (UL56 L241P). To be noted: for EC50: Human betaherpesvirus 5, AD169. As for the experimental part:
(§1) HCMV Cytopathic Effect Reduction Assay (CPE-RA)
(§2) CPE-RAs were performed basically as described elsewhere (HCMV replication assay). In brief, the addition of 2 μl test compound of 50, 5, 0.5, 0.05, 0.005, and 0.0005 mM DMSO stock solutions to 100 μl cell culture medium in duplicate was followed by serial 2-fold dilutions in 96-well microtiter plates. Each well was supplemented with 150 μl of either a suspension of 1×10^4 NHDF cells mixed with cell-free HCMV (multiplicity of infection (MOI), 0.03) or a suspension of 1×10^4 to 3×10^4 HCMV-infected and uninfected NHDF cells (MOI, 0.001 to 0.002). Non-infected and non-treated cells served as controls on each plate. Final compound concentrations ranged between 250 and 0.00005 μM. Plates were incubated for 6 to 7 days at 37° C. or until the virus control reached 100% CPE. A mixture containing 20% Giemsa stain (Merck) and 5% formalin solution (Merck) was added to the wells for fixation and staining. After extensive washing, plates were dried at 56° C. followed by visual evaluation using an overhead microscope (plaque magnifier; Tecnorama Zürich). Each assay was performed at least in triplicate, and standard deviations were calculated. The assay plate data were used to calculate the EC50 (CPE-RA), i.e., the concentration of drug that inhibits the CPE by 50% compared with an untreated virus-infected control.
(§3) Drug-resistant HCMV AD169 mutants were selected by the single-step selection method or by serial passage of the virus in the presence of increasing concentration of Letermovir. Briefly, 5×10^3 AD169-infected NHDF cells/well (MOI, 0.03 PFU/cell) were seeded into the wells of 30 96-well microtiter plates. The infection was allowed to proceed under the exposure of 50 nM Letermovir (˜10×EC50) until a CPE developed in one or more of the compound-treated wells (indicative of resistant virus breakthrough). Non-infected and non-treated cells served as controls on each plate. Mutant virus amplification was accomplished after cultures achieved maximum CPE by the passage of cell-free supernatant virus in the presence of 50 nM Letermovir. The resultant Letermovir-resistant progeny virus mutants were plaque purified three times by limiting dilutions in the presence of Letermovir. The stability of resistance was tested by serially passaging plaque-purified viruses without selective pressure (8 to 10 times). The resistant phenotype of the mutants was confirmed by CPE reduction assays.

The subject of test [2] is HCMV AD169 mutant rAIC246-10 (UL56 V236M). To be noted: for EC50: Human betaherpesvirus 5, AD169, rAIC246-10 (UL56 V236M), CPE reduction assay, mean ± SD. The protocol:
as §1, §2, §3

Test [3] relates to HCMV AD169 mutant rAIC246-3 (UL56 C325Y). To be noted: for EC50: Human betaherpesvirus 5, AD169, rAIC246-3 (UL56 C325Y), CPE reduction assay, mean ± SD. As for the experimental part:
as §1, §2, §3

Test [4] deals with HCMV AD169 mutant rAIC246-5 (UL56 R369M). To be noted: for EC50: Human betaherpesvirus 5, AD169, rAIC246-5 (UL56 R369M), CPE reduction assay, mean ± SD. As for the experimental part: as §1, §2, §3
Test [5] relates to HCMV AD169 mutant rAIC246-6 (UL56 R369M). To be noted: for EC50: Human betaherpesvirus 5, AD169, rAIC246-6 (UL56 R369M), CPE reduction assay, mean ± SD. As for the experimental part: as §1, §2, §3
The test system of test [6] is HCMV AD169 mutant rAIC246-7 (UL56 L241P). The settings on record: for EC50: Human betaherpesvirus 5, AD169, rAIC246-7 (UL56 L241P), CPE reduction assay, mean ± SD. As for the experimental part:
as §1, §2, §3

The test system of test [7] is HCMV AD169 mutant rAIC246-8 (UL56 C325Y). The settings on record: for EC50: Human betaherpesvirus 5, AD169, rAIC246-8 (UL56 C325Y), CPE reduction assay, mean ± SD. As for the experimental part:
as §1, §2, §3

Test [8] deals with HCMV AD169 mutant rAIC246-9 (UL56 R369G). To be noted: for EC50: Human betaherpesvirus 5, AD169, rAIC246-9 (UL56 R369G), CPE reduction assay, mean ± SD. As for the experimental part: as §1, §2, §3

SMILES strings stand for the structures.

As for `COc1cccc(N2CCN(C3=Nc4c(F)cccc4[C@H](CC(=O)O)N3c3cc(C(F)(F)F)ccc3OC)CC2)c1` [Letermovir, (S)-{8-fluoro-2-[4-(3-methoxyphenyl)-1-piperazinyl]-3-[2-methoxy-5-(trifluoromethyl)phenyl]-3,4-dihydro-4-quinazolinyl}acetic acid], the 50% effective concentration (EC50) in test [1] turned out to be 1240 ± 360 nM; in test [2], 70 ± 20 nM; in test [3], 27000 ± 3270 nM; in test [4], 110 ± 10 nM; in test [5], 80 ± 20 nM; in test [6], 920 ± 120 nM. Besides, the figures for the EC50 in test [7] and in test [8] were 25000 ± 5530 nM and 60 ± 40 nM, respectively. For the same compound, the “Resistance index (RI) = letermovir-EC50 mutant virus/letermovir-EC50 wild-type virus” value is listed as 221 in test [1] (rAIC246-1 vs AD169); 13 in test [2] (rAIC246-10 vs AD169); 4801 in test [3] (rAIC246-3 vs AD169); 19 in test [4] (rAIC246-5 vs AD169); 14 in test [5] (rAIC246-6 vs AD169); 164 in test [6] (rAIC246-7 vs AD169). Besides, the figures for the “Resistance index (RI) = letermovir-EC50 mutant virus/letermovir-EC50 wild-type virus” value in test [7] (rAIC246-8 vs AD169) and in test [8] (rAIC246-9 vs AD169) were 4428 and 11, respectively.

In the case of `Nc1nc(O)c2ncn(COC(CO)CO)c2n1` [Ganciclovir], the EC50 in test [1] was determined as 1200 ± 200 nM; in test [2], 1700 ± 300 nM; in test [3], 2400 ± 2500 nM; in test [4] it was 5000 ± 400 nM; in test [5] it was 2900 ± 900 nM; in test [6], 2200 ± 600 nM. Further, the figures for the EC50 in test [7] and in test [8] were 2200 ± 1200 nM and 1700 ± 200 nM, respectively.

As usually defined, the EC50 is the concentration needed to bring the measured effect to its halfway point. A higher EC50 goes with weaker potency.
